The values that follow come from patent US6780978B2, “Fluorescence-activating antisera and IgG fraction therefrom” (Hamamatsu Photonics, K.K., priority 1998, dated 2004).

The subject of data set [1] is anti-MG-KLH IgG. The experiment in a line: Absorption spectra of dye mixed with IgG fraction. It counts as binding, guinea-pig. How it is done: Concentrations of the aforementioned IgG fraction and MG solution were adjusted by dilution such that the protein concentration as described above and MG concentration would finally be 2 μM and 4 μM, respectively. Further, employing γ globulin of a guinea-pig as the control against anti-MG-KLH IgG (i.e., blank IgG), the absorption spectrum of a mixture of the IgG fraction and the MG solution was measured (See FIG. 3).

Data set [2] has as its system anti-MG-KLH IgG. The experiment in a line: Differential fluorescence spectra of dye mixed with IgG fraction. The format is binding, guinea-pig. The following applies: for fluorescent ability upon mixing with anti-MG-KLH IgG: differential spectrum versus blank IgG. The source says:
Since the differential spectra can remove problematic noises in the fluorescence analysis such as the fluorescence of a cell itself and Raman scattering of a solvent, it becomes possible to obtain the fluorescence spectrum purely pertaining to a sample.

Data set [3] in a line: Absorbance of Malachite Green dilutions in PBS at 617 nm. The format is physicochemical. The following applies: 1 cm path. As for the experimental part: Malachite Green is dissolved in a phosphate-buffered saline (hereinafter referred to as “PBS”) to prepare a series of dilutions in the concentration range of 4-4,000 nM.
Absorbance at a wavelength of 617 nm in these dilutions is measured with a Hitachi Model 557 two wavelength spectrophotometer using a quartz cell with a 1 cm optical path length and PBS as the reference (See Table 1), and a concentration—absorbance curve is prepared (See FIG. 6).

In data set [4] the test system is IgG fraction derived from Guinea-pig 1. The experiment in a line: Fluorescence of Malachite Green dilutions mixed with the IgG fraction. It counts as binding. The following applies: IgG fraction 0.2 μM, excitation 617 nm. How it is done: A series of dilutions of Malachite Green in PBS solutions are prepared by adding to the solutions, the IgG fraction according to the invention which has been derived from Guinea-pig 1 in certain amounts (with the final concentration being 0.2 μM), and by adjusting concentrations of the dye within the range of 0-12 nM.
Fluorescence of these dilutions is measured with a Hitachi Model 850 fluorescence spectrophotometer under the following conditions: in a quartz cell of optical path length of 1.0 cm at the excitation side; an excitation wavelength of 617 nm; an emission wavelength of 650 nm; a band-pass width of 5 nm at both excitation and emission sides; High gain of a photomultiplier; a time constant of 1.5 sec; and a fluorescence integration time of 30 sec. Thus, a concentration-fluorescence intensity curve is prepared (See FIG. 5).
The fluorescence intensity is expressed as output values (i.e., arbitrary, relative units) of the fluorescence spectrophotometer.

In the case of `CN(C)c1ccc(C(=N)c2ccc(N(C)C)cc2)cc1.Cl` [Auramine O], in the data set on anti-MG-KLH IgG [1], the “change of absorption intensity in anti-MG-KLH IgG mixed solution” value is listed as “decline in the absorption intensity” and the “shift of absorption spectrum in anti-MG-KLH IgG mixed solution” value is recorded as “shift toward longer wavelengths”. Moreover, the “fluorescent ability upon mixing with anti-MG-KLH IgG” value in the data set on anti-MG-KLH IgG [2] was “manifests its fluorescent ability”.

For the compound `CN(C)c1ccc(C(=C2C=CC(=[N+](C)C)C=C2)c2ccccc2)cc1` [Malachite Green], the “Absorbance (617 nm)” value in data set [3] (4 nM in PBS) was 0; in data set [3] (12 nM in PBS) it was 0; in data set [3] (40 nM in PBS), 0.002; in data set [3] (120 nM in PBS), 0.009; in data set [3] (400 nM in PBS), 0.036; in data set [3] (1200 nM in PBS), 0.132. The “Absorbance (617 nm)” value in data set [3] (4000 nM in PBS) came out at 0.464. Besides, the “Fluorescence intensity (650 nm)” value is listed as 0.026 arbitrary, relative units in data set [4] (0.04 nM dye); 0.034 arbitrary, relative units in data set [4] (0.12 nM dye); 0.066 arbitrary, relative units in data set [4] (0.4 nM dye); 0.18 arbitrary, relative units in data set [4] (1.2 nM dye); 0.487 arbitrary, relative units in data set [4] (4 nM dye); 1.22 arbitrary, relative units in data set [4] (12 nM dye). Moreover, the “shift of wavelength of absorption maximum to longer wavelength relative to dye alone” value in the data set with anti-MG-KLH IgG [1] (IgG 2 μM, MG 4 μM) was 6-7 nm. Also, the “increase of fluorescence quantum yield” value with anti-MG-KLH IgG [2] (by the treatment according to the invention) was “over 1,000 times”. For the same compound, the “fluorescent ability upon mixing with anti-MG-KLH IgG” value with anti-MG-KLH IgG [2] is “fluorescent”.
